# Reference: the supplement of paper PMC10307832
# Columns and labels:
# Test in all cases: relative viability (nuclei count vs DMSO), 5 days (fraction); higher = more cells survive
# 201T = system: 201T
# Outline: (§1)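 Relative viability divides the nuclei count in treated wells by that in vehicle wells. Lung cancer cell lines were seeded in 1536-well plates, dosed by pin tool the next day, and fixed and stained after 5 days in one step with final 0.05% Triton X-100, 1% formaldehyde and 1 ug/ml Hoechst. Dosing was a single drug or a fixed anchor-drug dose plus five library-drug doses (not always all listed) in √10 steps, and values are medians of duplicate plates imaged at 4×.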
# BEN = system: BEN
# Outline: as §1
# EMC-BAC-2 = system: EMC-BAC-2
# Outline: as §1
# HARA = system: HARA
# Outline: as §1
# HCC-44 = system: HCC-44
# Outline: as §1
# LOU-NH91 = system: LOU-NH91
# Outline: as §1
# NCI-H1395 = system: NCI-H1395
# Outline: as §1
# NCI-H1666 = system: NCI-H1666
# Outline: as §1
# NCI-H1993 = system: NCI-H1993
# Outline: as §1
# NCI-H2009 = system: NCI-H2009
# Outline: as §1
# NCI-H2023 = system: NCI-H2023
# Outline: as §1
# NCI-H2087 = system: NCI-H2087
# Outline: as §1
# NCI-H2126 = system: NCI-H2126
# Outline: as §1
# NCI-H2347 = system: NCI-H2347
# Outline: as §1
# NCI-H23 = system: NCI-H23
# Outline: as §1
# NCI-H3122 = system: NCI-H3122
# Outline: as §1
# NCI-H596 = system: NCI-H596
# Outline: as §1
# NCI-H647 = system: NCI-H647
# Outline: as §1
# NCI-H650 = system: NCI-H650
# Outline: as §1
# NCI-H727 = system: NCI-H727
# Outline: as §1
# NCI-H838 = system: NCI-H838
# Outline: as §1
structure (smiles),measurement,setting,value
CC(C)Oc1cc(Nc2nc(N[C@@H](C)c3ccc(F)cn3)ncc2Cl)n[nH]1 [AZ23] + CS(=O)(=O)CCNCc1ccc(-c2ccc3ncnc(Nc4ccc(OCc5cccc(F)c5)c(Cl)c4)c3c2)o1 [Lapatinib] (partner 2 µM),relative viability,201T; first compound 0.01 µM,1.03
same,relative viability,201T; first compound 0.03162 µM,1
same,relative viability,201T; first compound 0.3162 µM,1.1
same,relative viability,BEN; first compound 0.01 µM,0.807
same,relative viability,BEN; first compound 0.03162 µM,0.906
same,relative viability,BEN; first compound 0.3162 µM,0.708
same,relative viability,EMC-BAC-2; first compound 0.01 µM,0.968
same,relative viability,EMC-BAC-2; first compound 0.03162 µM,0.981
same,relative viability,EMC-BAC-2; first compound 0.3162 µM,0.922
same,relative viability,HARA; first compound 0.01 µM,0.862
same,relative viability,HARA; first compound 0.03162 µM,0.708
same,relative viability,HARA; first compound 0.3162 µM,0.584
same,relative viability,HCC-44; first compound 0.01 µM,1.01
same,relative viability,HCC-44; first compound 0.03162 µM,1.21
same,relative viability,HCC-44; first compound 0.3162 µM,1.09
same,relative viability,LOU-NH91; first compound 0.01 µM,0.674
same,relative viability,LOU-NH91; first compound 0.03162 µM,0.787
same,relative viability,LOU-NH91; first compound 0.3162 µM,0.716
same,relative viability,NCI-H1395; first compound 0.03162 µM,0.943
same,relative viability,NCI-H1395; first compound 0.3162 µM,1.03
same,relative viability,NCI-H1666; first compound 0.01 µM,0.747
same,relative viability,NCI-H1666; first compound 0.03162 µM,0.565
same,relative viability,NCI-H1666; first compound 0.3162 µM,0.591
same,relative viability,NCI-H1993; first compound 0.01 µM,0.808
same,relative viability,NCI-H1993; first compound 0.3162 µM,0.946
same,relative viability,NCI-H2009; first compound 0.01 µM,0.97
same,relative viability,NCI-H2009; first compound 0.03162 µM,0.997
same,relative viability,NCI-H2009; first compound 0.3162 µM,0.918
same,relative viability,NCI-H2023; first compound 0.03162 µM,0.945
same,relative viability,NCI-H2023; first compound 0.3162 µM,0.929
same,relative viability,NCI-H2087; first compound 0.01 µM,1.17
same,relative viability,NCI-H2087; first compound 0.03162 µM,1.17
same,relative viability,NCI-H2087; first compound 0.3162 µM,1.05
same,relative viability,NCI-H2126; first compound 0.01 µM,0.838
same,relative viability,NCI-H2126; first compound 0.03162 µM,0.821
same,relative viability,NCI-H2126; first compound 0.3162 µM,0.842
same,relative viability,NCI-H2347; first compound 0.01 µM,1.05
same,relative viability,NCI-H2347; first compound 0.03162 µM,1.02
same,relative viability,NCI-H2347; first compound 0.3162 µM,1.02
same,relative viability,NCI-H23; first compound 0.03162 µM,1.23
same,relative viability,NCI-H23; first compound 0.3162 µM,1.07
same,relative viability,NCI-H3122; first compound 0.01 µM,1.08
same,relative viability,NCI-H3122; first compound 0.03162 µM,1.01
same,relative viability,NCI-H3122; first compound 0.3162 µM,1.04
same,relative viability,NCI-H596; first compound 0.01 µM,1.03
same,relative viability,NCI-H596; first compound 0.03162 µM,1.11
same,relative viability,NCI-H596; first compound 0.3162 µM,1.03
same,relative viability,NCI-H647; first compound 0.01 µM,1.71
same,relative viability,NCI-H647; first compound 0.03162 µM,1.27
same,relative viability,NCI-H647; first compound 0.3162 µM,1.34
same,relative viability,NCI-H650; first compound 0.01 µM,0.649
same,relative viability,NCI-H650; first compound 0.03162 µM,1.19
same,relative viability,NCI-H650; first compound 0.3162 µM,0.849
same,relative viability,NCI-H727; first compound 0.01 µM,0.788
same,relative viability,NCI-H727; first compound 0.03162 µM,0.945
same,relative viability,NCI-H727; first compound 0.3162 µM,0.751
same,relative viability,NCI-H838; first compound 0.01 µM,0.99
same,relative viability,NCI-H838; first compound 0.03162 µM,1.06
same,relative viability,NCI-H838; first compound 0.3162 µM,0.908
